Measurements published in PubChem BioAssay (NCI).
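Results reflect a 48-hour exposure of cells in 96-well plates to compound at five concentrations. At the GI50, growth is halved. At the TGI there is no net growth.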

Legend:
Experiment in all cases: NCI anticancer screen, dose series, 48 h
COLO 205 colon = test system: COLO 205 colon
LOX IMVI melanoma = test system: LOX IMVI melanoma
UACC-257 melanoma = test system: UACC-257 melanoma
SF-268 CNS = test system: SF-268 CNS
SF-539 CNS = test system: SF-539 CNS
M14 melanoma = test system: M14 melanoma
KM12 colon = test system: KM12 colon
RXF 393 renal = test system: RXF 393 renal
IGROV1 ovarian = test system: IGROV1 ovarian
EKVX NSCLC = test system: EKVX NSCLC

Compound | GI50 (COLO 205 colon) [µM] | TGI (COLO 205 colon) [µM] | GI50 (LOX IMVI melanoma) [µM] | TGI (LOX IMVI melanoma) [µM] | GI50 (UACC-257 melanoma) [µM] | TGI (UACC-257 melanoma) [µM] | GI50 (SF-268 CNS) [µM] | TGI (SF-268 CNS) [µM] | GI50 (SF-539 CNS) [µM] | TGI (SF-539 CNS) [µM] | GI50 (M14 melanoma) [µM] | TGI (M14 melanoma) [µM] | GI50 (KM12 colon) [µM] | TGI (KM12 colon) [µM] | GI50 (RXF 393 renal) [µM] | TGI (RXF 393 renal) [µM] | GI50 (IGROV1 ovarian) [µM] | TGI (IGROV1 ovarian) [µM] | TGI (EKVX NSCLC) [µM] | GI50 (EKVX NSCLC) [µM]
O=S(=O)(NCCNc1nccc(-c2c(-c3cccc(O)c3)nc3sccn23)n1)c1ccc(F)cc1 | 0.779 | 11.5 | 4.11 | 20.1 | 0.568 | 16.5 | 7.51 | 42.3 | 5.23 | 24.6 | 0.568 | 16.6 | 4.36 | 16.2 | 2.44 | 12.5 | 3.53 | 18.1 | – | –
O=[N+]([O-])c1cccc(C2SCc3nc4ccccc4n32)c1 (configuration not stated) | – | > 100 | – | > 100 | – | > 100 | – | > 100 | – | > 100 | – | – | – | > 100 | – | > 100 | – | > 100 | > 100 | –
C/C=C/C=N/N(c1nnc(-c2ccccc2)c(-c2ccccc2)n1)S(=O)(=O)c1ccc(C)cc1 | – | 35.7 | – | 13.8 | – | 20.9 | – | 18 | – | 23.8 | – | 15.8 | – | 22.9 | – | – | – | 29.3 | 31.9 | –
O=C1CCCCC/C=C2/CC[C@H](Sc3ccccc3)[C@@H]12 | – | > 100 | – | > 100 | – | > 100 | – | > 100 | – | – | – | > 100 | – | > 100 | – | > 100 | – | – | > 100 | –
CCCCCCCCCCCCCCCCOC(=O)C(C(=O)OCCCCCCCCCCCCCCCC)[N+](C)(C)CCOC(C)=O | – | 36 | – | 44.8 | – | 35 | – | 44.1 | – | – | – | 38.5 | – | 33.8 | – | 8.98 | – | 13.7 | 43.7 | –
O=C(Nc1cccc(Cl)c1)Nc1cccc(Cl)c1 | – | – | 32 | > 100 | > 100 | > 100 | > 81.6 | > 100 | 49.1 | > 100 | > 100 | > 100 | – | – | 24.1 | > 92.8 | 37.8 | > 100 | – | –
CC(C)c1cc(C(C)C)c(S(=O)(=O)NN)c(C(C)C)c1 | – | > 100 | – | > 100 | – | > 100 | – | > 100 | – | > 100 | – | – | – | > 100 | – | > 100 | – | > 100 | > 100 | –
C=C1CC[C@@H]2C(C)(C)[C@@H](O)CC[C@@]2(C)[C@@H]1COc1ccc2ccc(=O)oc2c1 | – | – | 13.8 | 27.7 | 14.1 | 32.1 | 12.2 | 33.1 | 14.7 | 28.5 | 12.5 | 27.2 | 12.3 | 29.1 | 7.41 | 21.9 | 15.1 | 31.9 | 25.6 | 10.6
COc1ccc(/C=C2/C(=O)N(C(=O)c3ccccc3O)N=C2C)cc1OC | – | > 95.1 | – | > 54.2 | – | > 100 | – | > 100 | – | – | – | > 55.6 | – | > 100 | – | 0.097 | – | – | > 100 | –
COc1ccc(/C=C/C(=O)c2sc(N)nc2C)cc1 | – | > 100 | – | > 100 | – | > 100 | – | > 100 | – | > 100 | – | – | – | > 100 | – | > 100 | – | > 100 | > 100 | –
Fc1ccc(-c2nc(-c3nc4ccc(Cl)cc4[nH]3)cc3c2[nH]c2ccccc23)cc1 | 1.89 | 4.22 | 2.41 | 6.63 | 2.4 | 6.62 | 3.66 | 17.7 | 3.55 | 13.8 | 3.05 | 11.4 | 3.46 | 13.7 | 1.62 | 4.66 | 2.89 | 12.2 | – | –
NC(=O)c1ccccc1NC(=O)C(=O)C(C(=O)c1ccc2ccccc2c1)C1OC(=O)c2ccccc21 (configuration not stated) | – | 24.6 | – | 29.9 | – | 37.4 | – | 37.1 | – | – | – | 30 | – | 49 | – | 16.8 | – | 46.6 | 75.6 | –
COc1cc(CNC(=O)/C=C/C=C/c2ccc3c(c2)OCO3)ccc1OCc1cn(-c2ccc(Cl)c(Cl)c2)nn1 | – | – | 1.78 | 3.96 | 1.8 | 3.98 | 2.3 | 7.94 | 3.26 | 12.3 | 0.982 | 2.39 | 2.41 | 7.25 | 1.69 | 3.75 | 1.52 | 3.75 | 13.4 | 2.95
COc1ccc(Nc2c3ccccc3nc3c2c2ccccc2n3C)cc1 | 15.2 | > 100 | 7.62 | 47.2 | 37.5 | > 100 | 28 | > 100 | 8.78 | 27.5 | – | – | 6.61 | 53.3 | 64.9 | > 100 | 15.3 | > 100 | 60.3 | 7.91
NC(=S)N/N=C(/CC(=O)c1ccc([N+](=O)[O-])cc1)C(=O)Nc1ncc([N+](=O)[O-])s1 | – | > 100 | – | > 100 | – | > 100 | – | > 100 | – | – | – | > 100 | – | > 100 | – | > 100 | – | > 100 | > 100 | –
CC(=O)OC1(C#N)CC2OC1C1C2N1C(=O)c1ccccc1 (configuration not stated) | – | > 100 | – | > 100 | – | – | – | > 100 | – | > 100 | – | > 100 | – | – | – | > 100 | – | > 100 | > 100 | –
c1cncc(CNc2ccccc2-c2nnc(Nc3ccc4c(c3)OCO4)o2)c1 | 0.0411 | 0.551 | 0.0547 | > 100 | 0.432 | 60.4 | 0.407 | > 100 | 0.0815 | 0.539 | 0.056 | > 100 | 0.0505 | > 100 | – | – | 0.171 | > 100 | > 100 | 0.328
COC(=O)/C(C#N)=C\N1CCN(C(=O)c2ccco2)C1=S | 31.7 | > 100 | 2.39 | 8 | 5.94 | 22.5 | 4.83 | 17.9 | – | – | 6.35 | 19.9 | 3.3 | 12.6 | 3.1 | 7.71 | 6.16 | 26.4 | 28.5 | 10.2
